Reference: patent US8691761B2, “Somatostatin receptor 2 antagonists” (priority 2006, dated 2014)
Bridge positions count the residues as written; N and C are the ends. Square brackets hold non-standard residues; d marks the D form. Peptide text beside a SMILES is read from it. dPhe(4-NHCONH2) = NC(=O)Nc1ccc(C[C@@H](N)C(=O)O)cc1; Phe(4-NHCONH2) = NC(=O)Nc1ccc(C[C@H](N)C(=O)O)cc1; Phe(4-Cl) = N[C@@H](Cc1ccc(Cl)cc1)C(=O)O

Key:
Test in all cases: Receptor autoradiography, displacement of 125I-[Leu8,D-Trp22,Tyr25]-SRIF-28 from membrane pellet sections
Type in all cases: binding
hSSTR3 = biological target: T1, hSSTR3 (Homo sapiens, UniProt P32745); conditions: Table 3; mean ± SEM when N ≧ 3; read-out: sst3 binding affinity (IC50)
T1 construct: expressed in transfected cells; host or cells: CHO-K1 or CCL39 cells
T1 sequence (P32745 whole entry): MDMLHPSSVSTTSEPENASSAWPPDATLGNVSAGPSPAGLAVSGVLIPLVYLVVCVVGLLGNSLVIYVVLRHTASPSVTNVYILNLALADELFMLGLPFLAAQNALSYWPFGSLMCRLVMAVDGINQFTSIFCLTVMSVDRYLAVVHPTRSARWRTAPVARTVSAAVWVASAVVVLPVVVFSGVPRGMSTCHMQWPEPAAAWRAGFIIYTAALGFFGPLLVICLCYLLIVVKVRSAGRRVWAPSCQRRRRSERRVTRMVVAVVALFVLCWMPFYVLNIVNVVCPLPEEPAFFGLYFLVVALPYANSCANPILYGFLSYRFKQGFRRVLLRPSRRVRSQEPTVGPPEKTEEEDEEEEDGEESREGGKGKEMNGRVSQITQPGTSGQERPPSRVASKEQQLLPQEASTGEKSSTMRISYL
Experimental: (§1) Generally, recombinant cells expressing the receptor are washed and homogenized to prepare a crude protein homogenate in a suitable buffer. In a typical assay, an amount of protein from the cell homogenate is placed into a small volume of an appropriate assay buffer at an appropriate pH. Candidate substances, such as potential SRIF agonists and antagonists, are added to the admixture in convenient concentrations, and the interaction between the candidate substance and the receptor polypeptide is monitored.
(§2) In vitro Bioassay: The effects of the various somatostatin analogs were tested in vitro for their ability to bind to isolated cloned receptors expressed on CHO-K1 cells and CCL39 cells. The molecular cloning of the genes encoding multiple somatostatin receptor subtypes permitted the individual expression of these receptors in mammalian cells and the characterization of their respective pharmacological profiles.
(§3) CHO-K1 cells were grown in Ham's F-12 medium, and CCL39 cells were grown in Dulbecco's modified Eagle's medium/Ham's F-12(1:1) mix, supplemented with 10% fetal bovine serum, 100 U/ml penicillin and 100 μg/ml streptomycin, in humidified air containing 5% CO2 at 37° C. Cells were washed twice with and scraped into ice-cold 0.05 M Tris-HCl (pH 7.4), collected by centrifugation, and homogenized using a rotor/stator/system in the same buffer. After centrifugation at 120 g for 5 min at 4° C., the supernatant was collected and centrifuged again at 48,000 g for 30 min at 4° C. The resulting pellet was resuspended in ice-cold Tris buffer, transferred into a microfuge tube, and centrifuged at 20,000 g for 15 min at 4° C. After withdrawal of the supernatant, the membrane pellet was stored at −80° C.
(§4) Receptor autoradiography was performed on 20 μm thick cryostat sections of the membrane pellets, mounted on microscope slides, and then stored at −20° C. […] Increasing concentrations of the unlabeled peptide were used ranging from 0.1-1000 nM. […] IC50 values were calculated after quantification of the data using a computer-assisted image processing system as known in this art.
(§5) The numbers in parentheses indicate the number of times the particular binding test was carried out.
(§6) Receptor autoradiography. Cell membrane pellets were prepared as previously described, and stored at −80° C. Receptor autoradiography was performed on 20-μm thick cryostat (Microm HM 500, Walldorf, Germany) sections of the membrane pellets, mounted on microscope slides, and then stored at −20° C. […] After a brief dip in distilled water to remove excess salts, the sections were dried quickly and exposed for 1 week to Kodak BioMax MR film. IC50 values were calculated after quantification of the data using a computer-assisted image processing system as described previously. […] (Reubi, J. C. “In vitro identification of vasoactive intestinal peptide receptors in human tumors: Implications for tumor imaging.” J. Nucl. Med. 1995, 36, 1846-1853).
(§7) To investigate their ssts binding properties, the peptides were tested for their ability to bind to cryostat sections from membrane pellets of cells expressing the five human ssts (Table 3).

hSSTR4 = biological target: T2, hSSTR4 (Homo sapiens, UniProt P31391); conditions: Table 3; mean ± SEM when N ≧ 3; read-out: sst4 binding affinity (IC50)
T2 construct: expressed in transfected cells; host or cells: CHO-K1 or CCL39 cells
T2 sequence (P31391 whole entry): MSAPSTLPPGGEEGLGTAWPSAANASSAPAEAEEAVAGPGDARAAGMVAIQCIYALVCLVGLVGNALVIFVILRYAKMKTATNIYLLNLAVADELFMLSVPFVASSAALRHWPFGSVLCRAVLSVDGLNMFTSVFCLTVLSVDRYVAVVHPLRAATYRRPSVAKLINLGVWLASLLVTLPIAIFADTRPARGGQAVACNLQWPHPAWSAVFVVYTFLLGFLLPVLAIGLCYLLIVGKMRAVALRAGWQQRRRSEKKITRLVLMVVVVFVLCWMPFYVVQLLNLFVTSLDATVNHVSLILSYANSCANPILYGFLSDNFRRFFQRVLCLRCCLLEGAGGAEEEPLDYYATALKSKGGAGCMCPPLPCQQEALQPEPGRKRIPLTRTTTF
Experimental: as §1, §2, §3, §4, §5, §6, §7

hSSTR1 = biological target: T3, hSSTR1 (Homo sapiens, UniProt P30872); conditions: Table 3; mean ± SEM when N ≧ 3; read-out: sst1 binding affinity (IC50)
T3 construct: expressed in transfected cells; host or cells: CHO-K1 or CCL39 cells
T3 sequence (P30872 whole entry): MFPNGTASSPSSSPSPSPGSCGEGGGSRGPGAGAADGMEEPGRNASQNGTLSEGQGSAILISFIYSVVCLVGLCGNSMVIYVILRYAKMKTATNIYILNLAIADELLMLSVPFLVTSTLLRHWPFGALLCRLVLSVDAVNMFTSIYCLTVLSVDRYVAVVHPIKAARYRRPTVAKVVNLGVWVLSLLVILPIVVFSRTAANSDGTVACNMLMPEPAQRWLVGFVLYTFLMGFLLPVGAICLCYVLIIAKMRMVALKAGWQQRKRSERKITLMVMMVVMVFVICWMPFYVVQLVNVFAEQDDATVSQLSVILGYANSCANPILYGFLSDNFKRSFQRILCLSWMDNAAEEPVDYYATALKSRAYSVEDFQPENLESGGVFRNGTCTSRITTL
Experimental: as §1, §2, §3, §4, §5, §6, §7

hSSTR5 = biological target: T4, hSSTR5 (Homo sapiens, UniProt P35346); conditions: Table 3; mean ± SEM when N ≧ 3; read-out: sst5 binding affinity (IC50)
T4 construct: expressed in transfected cells; host or cells: CHO-K1 or CCL39 cells
T4 sequence (P35346 whole entry): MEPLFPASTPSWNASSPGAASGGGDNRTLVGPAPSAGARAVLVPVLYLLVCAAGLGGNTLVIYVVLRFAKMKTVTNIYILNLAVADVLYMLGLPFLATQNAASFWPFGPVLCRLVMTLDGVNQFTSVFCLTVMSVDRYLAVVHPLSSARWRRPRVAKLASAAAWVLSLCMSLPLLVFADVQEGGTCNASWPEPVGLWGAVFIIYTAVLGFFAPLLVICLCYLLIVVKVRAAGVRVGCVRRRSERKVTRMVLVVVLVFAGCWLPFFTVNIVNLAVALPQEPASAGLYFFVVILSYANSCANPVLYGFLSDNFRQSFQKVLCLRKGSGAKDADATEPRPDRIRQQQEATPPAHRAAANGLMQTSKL
Experimental: as §1, §2, §3, §4, §5, §6, §7

hSSTR2 = biological target: T5, hSSTR2 (Homo sapiens, UniProt P30874); conditions: Table 3; mean ± SEM when N ≧ 3; read-out: sst2 binding affinity (IC50)
T5 construct: expressed in transfected cells; host or cells: CHO-K1 or CCL39 cells
T5 sequence (P30874 whole entry): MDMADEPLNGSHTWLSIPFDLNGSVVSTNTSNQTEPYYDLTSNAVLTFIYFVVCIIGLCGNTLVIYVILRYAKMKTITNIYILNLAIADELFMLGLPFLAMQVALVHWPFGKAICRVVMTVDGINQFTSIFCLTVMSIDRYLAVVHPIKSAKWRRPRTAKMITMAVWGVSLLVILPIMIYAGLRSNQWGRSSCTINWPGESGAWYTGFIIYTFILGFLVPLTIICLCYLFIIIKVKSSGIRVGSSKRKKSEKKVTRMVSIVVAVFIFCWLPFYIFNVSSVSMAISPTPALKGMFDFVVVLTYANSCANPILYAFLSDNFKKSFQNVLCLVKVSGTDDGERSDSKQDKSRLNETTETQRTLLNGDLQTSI
Experimental: as §1, §2, §3, §4, §5, §6, §7

| Structure (SMILES) | IC50 (hSSTR3) [nM] | IC50 (hSSTR4) [nM] | IC50 (hSSTR1) [nM] | IC50 (hSSTR5) [nM] | IC50 (hSSTR2) [nM] |
| --- | --- | --- | --- | --- | --- |
| C[C@@H](O)[C@@H]1NC(=O)[C@H](CCCCN)NC(=O)[C@@H](Cc2c[nH]c3ccccc23)NC(=O)[C@H](Cc2ccc(NC(N)=O)cc2)NC(=O)[C@H](NC(=O)[C@@H](N)Cc2ccc(Cl)cc2)CSSC[C@@H](C(=O)N[C@@H](CC2CCCCC2)C(N)=O)NC1=O [compound 18, H2N-Cpa-c[DCys-Aph(Cbm)-DTrp-Lys-Thr-Cys]-Cha-NH2] | 255 ± 79 | > 1000 | > 1000 | 247 ± 66 | 4.1 ± 0.9 |
| C[C@@H](O)[C@@H]1NC(=O)[C@H](CCCCN)NC(=O)[C@@H](Cc2c[nH]c3ccccc23)NC(=O)[C@H](Cc2ccc(NC(N)=O)cc2)NC(=O)[C@H](NC(=O)[C@@H](N)Cc2ccc(Cl)cc2)CSSC[C@@H](C(=O)N[C@H](Cc2ccc(NC(N)=O)cc2)C(N)=O)NC1=O [compound 20, H2N-Cpa-c[DCys-Aph(Cbm)-DTrp-Lys-Thr-Cys]-DAph(Cbm)-NH2] | 328 ± 69 | 800 ± 295 | > 1000 | 191 ± 49 | 5.4 |
| C[C@@H](O)[C@@H]1NC(=O)[C@H](CCCCN)NC(=O)[C@@H](Cc2c[nH]c3ccccc23)NC(=O)[C@H](Cc2ccc(NC(N)=O)cc2)NC(=O)[C@H](NC(=O)[C@@H](N)Cc2ccc(Cl)cc2)CSSC[C@@H](C(=O)N[C@@H](Cc2ccc(NC(N)=O)cc2)C(N)=O)NC1=O [compound 21, H2N-Cpa-c[DCys-Aph(Cbm)-DTrp-Lys-Thr-Cys]-Aph(Cbm)-NH2] | 336 ± 46 | 551 ± 151 | > 1000 | 560 ± 144 | 15 |

Results, then the molecule that gave them:

| IC50 (hSSTR3) [nM] | IC50 (hSSTR4) [nM] | IC50 (hSSTR1) [nM] | IC50 (hSSTR5) [nM] | IC50 (hSSTR2) [nM] | Structure (SMILES) |
| --- | --- | --- | --- | --- | --- |
| 120 ± 45 | 813 ± 152 | > 1000 | 426 ± 189 | 9.3 ± 1.4 | C[C@@H](O)[C@@H]1NC(=O)[C@H](CCCCN)NC(=O)[C@@H](Cc2c[nH]c3ccccc23)NC(=O)[C@H](Cc2ccc(NC(=O)NO)cc2)NC(=O)[C@H](NC(=O)[C@@H](N)Cc2ccc(Cl)cc2)CSSC[C@@H](C(=O)N[C@@H](Cc2ccc3ccccc3c2)C(N)=O)NC1=O [compound 24, H2N-Cpa-c[DCys-Aph(CONH—OH)-DTrp-Lys-Thr-Cys]-2Nal-NH2] |
| 157 ± 49 | 883 ± 174 | > 1000 | 313 ± 35 | 9.3 ± 0.9 | CONC(=O)Nc1ccc(C[C@@H]2NC(=O)[C@H](NC(=O)[C@@H](N)Cc3ccc(Cl)cc3)CSSC[C@@H](C(=O)N[C@@H](Cc3ccc4ccccc4c3)C(N)=O)NC(=O)[C@H]([C@@H](C)O)NC(=O)[C@H](CCCCN)NC(=O)[C@@H](Cc3c[nH]c4ccccc34)NC2=O)cc1 [compound 23, H2N-Cpa-c[DCys-Aph(CONH—OCH3)-DTrp-Lys-Thr-Cys]-2Nal-NH2] |
| 661 ± 115 | > 1000 | > 1000 | 810 ± 200 | 52 ± 4.7 | C[C@@H](O)[C@@H]1NC(=O)[C@H](CCCCN)NC(=O)[C@@H](Cc2c[nH]c3ccccc23)NC(=O)[C@H](Cc2ccc(NC(N)=O)cc2)NC(=O)[C@H](NC(=O)[C@@H](N)Cc2ccc(Cl)cc2)CSSC[C@@H](C(=O)N[C@H](Cc2ccc(NC(N)=O)cc2)C(=O)NCC(=O)O)NC1=O [compound 22, H2N-Cpa-c[DCys-Aph(Cbm)-DTrp-Lys-Thr-Cys]-DAph(Cbm)-GlyOH] (H-[Phe(4-Cl)][dC][Phe(4-NHCONH2)][dW]KTC[dPhe(4-NHCONH2)]G-OH; disulfide 2-7) |
